From ChEMBL document CHEMBL3421631, “Structure-activity relationship and properties optimization of a series of quinazoline-2,4-diones as inhibitors of the canonical Wnt pathway” (Eur J Med Chem, 2015)
Blank lines part the entries; values can stand above or below the compound they belong to.

How the values were obtained:
[1] = Permeability of the compound at 10 uM by PAMPA-BBB assay in presence of mixture of porcine brain lipids dodecane; assay type: ADME; conditions: pig
[2] = Intrinsic clearance in male mouse liver microsomes at 1 uM by UPLC/TOF-MS analysis; assay type: ADME; conditions: read-out: CLH
[3] = Metabolic stability in mouse plasma assessed as compound remaining measured at 10 uM after 3 hrs by LC-MS/MS analysis; assay type: ADME, cell-free; conditions: read-out: Stability
[4] = Half life in CD1 mouse at 5 mg/kg, po; assay type: ADME, organism-based; parameters: dose 5 mg/kg, route oral; conditions: in vivo
[5] = AUC in SCID mouse at 300 mg/kg, po qd for 1 to 3 days; assay type: ADME, organism-based; parameters: dose 300 mg/kg, route oral; conditions: plasma
[6] = Oral bioavailability in CD1 mouse at 5 mg/kg; assay type: ADME, organism-based; conditions: in vivo
[7] = Cmax in SCID mouse at 100 mg/kg, po qd for 14 days; assay type: ADME, organism-based; parameters: dose 100 mg/kg, route oral; conditions: in vivo
[8] = tested on: MDR1; test: Apparent permeability from apical to basolateral side in MDCK cells expressing human MDR1 at 10 uM after 120 mins by UPLC/TOF-MS analysis; assay type: ADME, cell-based, Canis lupus familiaris; conditions: dog, read-out: permeability
[9] = Tmax in SCID mouse at 100 mg/kg, po qd for 14 days; assay type: ADME, organism-based; parameters: dose 100 mg/kg, route oral; conditions: in vivo
[10] = tested on: Mus musculus; test: AUC (0 to infinity) in CD1 mouse at 5 mg/kg, po; assay type: ADME, organism-based, Plasma; parameters: time infinity, dose 5 mg/kg, route oral; conditions: in vivo
[11] = Cmax in SCID mouse at 300 mg/kg, po qd for 1 to 3 days; assay type: ADME, organism-based; parameters: dose 300 mg/kg, route oral; conditions: in vivo
[12] = AUC in SCID mouse at 100 mg/kg, po qd for 1 to 7 days and 14 to 21 days; assay type: ADME, organism-based; parameters: dose 100 mg/kg, route oral; conditions: plasma
[13] = Half life in SCID mouse at 300 mg/kg, po qd for 1 to 3 days; assay type: ADME, organism-based; parameters: dose 300 mg/kg, route oral; conditions: in vivo
[14] = Tmax in SCID mouse at 100 mg/kg, po qd for 1 to 7 days and 14 to 21 days; assay type: ADME, organism-based; parameters: dose 100 mg/kg, route oral; conditions: in vivo
[15] = Half life in SCID mouse at 100 mg/kg, po qd for 1 to 7 days and 14 to 21 days; assay type: ADME, organism-based; parameters: dose 100 mg/kg, route oral; conditions: in vivo
[16] = Half life in SCID mouse at 100 mg/kg, po qd for 14 days; assay type: ADME, organism-based; parameters: dose 100 mg/kg, route oral; conditions: in vivo
[17] = Ratio of drug level in brain to plasma in CD1 mouse at 5 mg/kg, po; assay type: ADME, organism-based; parameters: dose 5 mg/kg, route oral; conditions: read-out: BPR
[18] = Cmax in SCID mouse at 100 mg/kg, po qd for 1 to 7 days and 14 to 21 days; assay type: ADME, organism-based; parameters: dose 100 mg/kg, route oral; conditions: in vivo
[19] = Cmax in CD1 mouse at 5 mg/kg, po; assay type: ADME, organism-based; parameters: dose 5 mg/kg, route oral; conditions: in vivo
[20] = AUC in SCID mouse at 100 mg/kg, po qd for 14 days; assay type: ADME, organism-based; parameters: dose 100 mg/kg, route oral; conditions: plasma
[21] = Toxicity in human NCI-N87 cells xenografted po dosed SCID mouse qd for 14 days; assay type: organism-based; conditions: in vivo
[22] = tested on: Mus musculus; test: Volume of distribution at steady state in CD1 mouse at 5 mg/kg, po; assay type: ADME, organism-based; parameters: dose 5 mg/kg, route oral; conditions: in vivo
[23] = Tmax in SCID mouse at 300 mg/kg, po qd for 1 to 3 days; assay type: ADME, organism-based; parameters: dose 300 mg/kg, route oral; conditions: in vivo

- permeability [1]: permeable
SMILES: O=C(C1CCC1)N1CCN(C(=O)[C@H]2CC[C@H](Cn3c(=O)[nH]c4ccccc4c3=O)CC2)CC1

- permeability [1]: permeable
SMILES: CC(C)C(=O)N1CCN(C(=O)[C@H]2CC[C@H](Cn3c(=O)[nH]c4cccc(F)c4c3=O)CC2)CC1

- microsomal CLint at 1 µM [2]: 14.5 µL/min/mg
- permeability [1]: permeable
- remaining at 3 h, 10 µM [3]: 74%
SMILES: COCC(=O)N1CCN(C(=O)[C@H]2CC[C@H](Cn3c(=O)[nH]c4ccc(OC)cc4c3=O)CC2)CC1

- permeability [1]: permeable
SMILES: O=c1[nH]c2ccccc2c(=O)n1C[C@H]1CC[C@H](C(=O)N2CCN(c3ncccn3)CC2)CC1

- permeability [1]: permeable
SMILES: CC(C)C(=O)N1CCN(C(=O)[C@H]2CC[C@H](Cn3c(=O)[nH]c4ccccc4c3=O)CC2)CC1

- permeability [1]: permeable
SMILES: Cc1cccc2c(=O)n(C[C@H]3CC[C@H](C(=O)N4CCN(C(=O)C(C)C)CC4)CC3)c(=O)[nH]c12

- permeability [1]: permeable
SMILES: CC(C)C(=O)N1CCN(C(=O)[C@H]2CC[C@H](Cn3c(=O)[nH]c4cccc(Cl)c4c3=O)CC2)CC1

- microsomal CLint at 1 µM [2]: 41.2 µL/min/mg
- permeability [1]: permeable
- remaining at 3 h, 10 µM [3]: 100%
SMILES: COc1ccc2[nH]c(=O)n(C[C@H]3CC[C@H](C(=O)N4CCN(C(C)=O)CC4)CC3)c(=O)c2c1

SMILES: COCC(=O)N1CCN(C(=O)[C@H]2CC[C@H](Cn3c(=O)c4cc(OC)ccc4n(C)c3=O)CC2)CC1
- half-life [4]: 2.2 h
- microsomal CLint at 1 µM [2]: 23 µL/min/mg
- AUC [5]: 193 µM·h
- bioavailability [6]: 42%
- Cmax [7]: 27 µM
- Papp A→B at 2 h, 10 µM [8]: 1.3 ×10⁻⁶ cm/s
- Tmax [9]: 0.5 h
- permeability [1]: permeable
- AUC [10]: 4.9 µM·h
- Cmax [11]: 35 µM
- AUC [12]: 101 µM·h
- half-life [13]: 5.4 h
- Tmax [14]: 0.5 h
- half-life [15]: 1.6 h
- half-life [16]: 2.2 h
- Kp [17]: 0.03
- Cmax [18]: 22 µM
- Cmax [19]: 1.3 µM
- AUC at 336 h [20]: 113 µM·h
- MTD at 336 h [21]: 250 mg/kg
- Vdss [22]: 0.83 L/kg
- Tmax [23]: 1 h
- remaining at 3 h, 10 µM [3]: 95%

- permeability [1]: permeable
SMILES: CC(=O)N1CCN(C(=O)[C@H]2CC[C@H](Cn3c(=O)[nH]c4ccccc4c3=O)CC2)CC1

- permeability [1]: impermeable
SMILES: O=c1[nH]c2ccccc2c(=O)n1C[C@H]1CC[C@H](C(=O)N2CCN(Cc3ccccc3)CC2)CC1

- permeability [1]: permeable
SMILES: CC(C)CN1CCN(C(=O)[C@H]2CC[C@H](Cn3c(=O)[nH]c4ccccc4c3=O)CC2)CC1

- microsomal CLint at 1 µM [2]: 33.3 µL/min/mg
- permeability [1]: permeable
- remaining at 3 h, 10 µM [3]: 100%
SMILES: COc1ccc2c(c1)c(=O)n(C[C@H]1CC[C@H](C(=O)N3CCN(C(C)=O)CC3)CC1)c(=O)n2C

- permeability [1]: permeable
SMILES: O=C(c1ccno1)N1CCN(C(=O)[C@H]2CC[C@H](Cn3c(=O)[nH]c4ccccc4c3=O)CC2)CC1

- permeability [1]: permeable
SMILES: COc1ccc2[nH]c(=O)n(C[C@H]3CC[C@H](C(=O)N4CCN(C(=O)C(C)C)CC4)CC3)c(=O)c2c1

- permeability [1]: permeable
SMILES: O=C(C1CC1)N1CCN(C(=O)[C@H]2CC[C@H](Cn3c(=O)[nH]c4ccccc4c3=O)CC2)CC1

- microsomal CLint at 1 µM [2]: 139 µL/min/mg
- permeability [1]: permeable
- remaining at 3 h, 10 µM [3]: 98%
SMILES: COc1ccc2c(c1)c(=O)n(C[C@H]1CC[C@H](C(=O)N3CCN(C(=O)C4CC4)CC3)CC1)c(=O)n2C

- permeability [1]: permeable
SMILES: O=c1[nH]c2ccccc2c(=O)n1C[C@H]1CC[C@H](C(=O)N2CCN(CC3CC3)CC2)CC1

- permeability [1]: permeable
SMILES: COc1cccc2[nH]c(=O)n(C[C@H]3CC[C@H](C(=O)N4CCN(C(=O)C(C)C)CC4)CC3)c(=O)c12

- permeability [1]: impermeable
SMILES: COc1ccccc1N1CCN(C(=O)[C@H]2CC[C@H](Cn3c(=O)[nH]c4ccccc4c3=O)CC2)CC1

- microsomal CLint at 1 µM [2]: 65.6 µL/min/mg
- permeability [1]: permeable
- remaining at 3 h, 10 µM [3]: 78%
SMILES: COc1ccc2[nH]c(=O)n(C[C@H]3CC[C@H](C(=O)N4CCN(C(=O)C5CC5)CC4)CC3)c(=O)c2c1

- permeability [1]: permeable
SMILES: CC(C)C(=O)N1CCN(C(=O)[C@H]2CC[C@H](Cn3c(=O)[nH]c4cc(Cl)ccc4c3=O)CC2)CC1

- permeability [1]: permeable
SMILES: O=c1[nH]c2ccccc2c(=O)n1C[C@H]1CC[C@H](C(=O)N2CCN(c3cnccn3)CC2)CC1

- permeability [1]: permeable
SMILES: COCC(=O)N1CCN(C(=O)[C@H]2CC[C@H](Cn3c(=O)[nH]c4ccccc4c3=O)CC2)CC1

- permeability [1]: permeable
SMILES: Cc1ccc2[nH]c(=O)n(C[C@H]3CC[C@H](C(=O)N4CCN(C(=O)C(C)C)CC4)CC3)c(=O)c2c1
